From patent US9371521B2, “Substituted pyrazinedithiol reducing agents” (Wisconsin Alumni Research Foundation, priority 2014, dated 2016)
In brackets after ≈: the same amount, converted by molar mass. Several values for one entry are separate records, joined by “and”; a condition that tells them apart may be missing. Identical values can stand only once. Like-named read-outs stand apart in the source and are kept apart here.

How the values were obtained:
[1] = Determination of thiol pKa values (pH titration monitored by UV absorbance at 238 nm); assay type: physicochemical
Method: Thiol pKa values were determined using a Varian Cary 60 UV-Vis spectrophotometer. Kinetic studies on proteins were carried out using a Varian Cary 400 Bio UV-Vis spectrometer with a Cary temperature controller at the Biophysics Instrumentation Facility at Madison (BIF). All NMR spectra were acquired at ambient temperature with a Bruker DMX-400 Avance spectrometer and a Bruker Avance III 500ii with cyroprobe spectrometer at the National Magnetic Resonance Facility at Madison (NMRFAM), and were referenced to TMS or residual protic solvent.
The thiol pKa values are determined by following a procedure reported previously that exploits the elevated absorbance of the deprotonated thiolate at 238 nm.
For BMMP determination, in eq 1, CT is the total thiol concentration, εSH^SH is the extinction coefficient of the doubly protonated form of BMMP, εSH^S- is the extinction coefficient of the singly protonated form of BMMP, and εS-^S- is the extinction coefficient of the doubly deprotonated form of BMMP.
For comparison, the thiol pKa values for DMH were determined in a similar fashion.

[2] = Reduction potential from equilibrium reaction with oxidized DTT (HPLC, Nernst equation); assay type: physicochemical; conditions: for Disulfide E°′ (reduction potential of oxidized form) / Keq of equilibrium reaction with DTTox: 50 mM potassium phosphate buffer, pH 7.0, EDTA 2 mM, 24 h; for Disulfide E°′ (reduction potential of oxidized form): assuming −0.327 V for DTT, this work
[3] = Reduction kinetics on oxidized βME; assay type: physicochemical; conditions: for kobs for reduction of βMEox: 5 mM each
papain-Cys25-S—S—CH3 = biological target: T1, papain-Cys25-S—S—CH3 (Carica papaya, UniProt P00784); assay: Reactivation of papain (reduction of active-site mixed disulfide); assay type: biochemical; conditions: for kobs for reduction of papain-Cys25-S-S-CH3: 0.10 M imidazole-HCl buffer, pH 7.0, EDTA 2 mM
T1 construct: Papain (lyophilized powder from papaya latex); purchased Sigma-Aldrich (St. Louis, Mo.); host or cells: papaya latex (natural source)
T1 sequence (P00784 134-345): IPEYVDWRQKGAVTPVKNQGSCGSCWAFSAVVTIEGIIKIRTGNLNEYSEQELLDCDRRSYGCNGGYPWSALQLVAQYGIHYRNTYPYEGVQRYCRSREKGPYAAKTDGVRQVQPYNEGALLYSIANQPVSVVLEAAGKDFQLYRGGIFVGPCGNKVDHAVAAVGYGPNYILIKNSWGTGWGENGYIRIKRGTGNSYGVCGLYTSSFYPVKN
Method: (§1) Commercial reagents were used without further purification. Dithiothreitol (DTT) was from Research Products International (Mt. Prospect, Ill.). […].
Papain was inactivated by forming a mixed disulfide upon treatment of its active-site cysteine (Cys25) with S-methyl methanethiosulfonate following a procedure reported previously. A 1.25 mL solution of papain-Cys25-S—S—CH3 (4.4×10^−6 M) in a degassed 0.10 M imidazole-HCl buffer, pH 7.0, containing EDTA (2 mM) was placed in a 1.5-mL LoBind Eppendorf tube. At time t=0, 10 μL of a 1 mM stock solution of BMMP was added, and a timer was started. […] A unit of protein is defined as the amount of enzyme required to produce 4-nitroaniline at a rate of 1 μmol/min. The units of active papain at each time point were calculated by using an extinction coefficient for 4-nitroaniline of ε=8,800 M^−1cm^−1 at 410 nm. […] Y=enzymatic activity (%) at any time point was determined by dividing the number of active units of enzyme by the possible number of units in the solution, and plotted in FIG. 2A. To determine the value of the second-order rate constant (kobs) for the reducing agents, the second order rate equation (eq 4) was transformed into eq 5, which was fitted to the data with the program Prism 5.0.

[4] = biological target: T2, creatine kinase-Cys283-S-S-G (Oryctolagus cuniculus, UniProt P00563); assay: Reactivation of creatine kinase (reduction of mixed disulfide with glutathione); assay type: biochemical, rabbit; conditions: for kobs for reduction of creatine kinase-Cys283-S-S-G: 0.10 M imidazole-HCl buffer, pH 7.0, EDTA 2 mM
T2 construct: creatine kinase (lyophilized powder from rabbit muscle); purchased Sigma-Aldrich (St. Louis, Mo.); host or cells: rabbit muscle (natural source)
Method: as §1
[21, 23] Enzymatic activity (%) at particular time points was calculated by dividing the number of active units of enzyme by the possible number of units in solution, and was plotted in FIG. 2B. Values of kobs (Table 2) were determined using eq.

[5] = Determination of BMMP solubility in buffered water (1H NMR); assay type: physicochemical; conditions: aqueous buffer, thermodynamic from solid; 50 mM sodium phosphate buffer, pH 7.0
Method: A 20 mM stock solution of 2-butyne-1,4-diol (an ^1H NMR standard) was prepared in 50 mM sodium phosphate buffer, pH 7.0. BMMP was added to a solution containing 1 mL of this buffer and 0.1 mL of D2O until the solution was saturated completely. The mixture was sonicated to ensure complete dissolution and filtered into an NMR tube, and its spectrum was acquired. The solubility of BMMP was determined to be (64±14) mM by integration of the ^1H NMR peak areas of the aryl CH and methylene CH2SH protons for BMMP and the CH2OH peak for 2-butyne-1,4-diol.

[6] = biological target: T2, creatine kinase-Cys283-S-S-G; conditions: literature [23]; cited from earlier work
[7] = literature value; cited from earlier work
[8] = literature value [37]; cited from earlier work
[9] = cited from earlier work
[10] = Thiol pKa (second value, in parentheses)
[11] = pH 5.0, 50 mM sodium acetate buffer
[12] = pH 7.0, 50 mM potassium phosphate buffer

T2 sequence (P00563 whole entry): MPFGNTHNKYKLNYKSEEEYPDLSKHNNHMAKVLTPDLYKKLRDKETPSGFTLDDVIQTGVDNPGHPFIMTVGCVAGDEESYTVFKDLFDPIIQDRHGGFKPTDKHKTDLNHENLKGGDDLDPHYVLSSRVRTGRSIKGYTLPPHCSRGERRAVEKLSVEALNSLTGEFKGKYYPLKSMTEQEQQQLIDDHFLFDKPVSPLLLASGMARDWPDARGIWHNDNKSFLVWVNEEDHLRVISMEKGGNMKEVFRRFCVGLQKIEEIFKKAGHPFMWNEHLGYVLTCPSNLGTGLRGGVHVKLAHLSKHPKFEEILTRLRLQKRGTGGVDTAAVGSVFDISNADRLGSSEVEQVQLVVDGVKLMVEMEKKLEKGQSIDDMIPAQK

CN(C(=O)CS)N(C)C(=O)CS [drawing 5]
Thiol pKa (first, lower value) [1]: 8.0 ± 0.2 | Thiol pKa (second value, in parentheses) [1]: 9.1 ± 0.1 | Disulfide E°′ (reduction potential of oxidized form) [2]: −0.262 ± 0.004 V^c

SCc1nccnc1CS [drawing 7]
pKa ([1]; Thiol pKa (first, lower value)): 7.6 ± 0.1 | pKa [1, 10]: 9 | Disulfide E°′ (reduction potential of oxidized form) [2]: −0.301 ± 0.003 V^c

SCc1nccnc1CS [BMMP, 2,3-bis(mercaptomethyl)pyrazine]
Keq of equilibrium reaction with DTTox [2]: 0.137±0.036 | Disulfide E°′ (reduction potential of oxidized form) [2]: −0.301±0.003 V | Free energy by which equilibrium favors reduced BMMP and oxidized DTT ([2]; reduced BMMP + oxidized DTT vs oxidized BMMP + reduced DTT): -1.2 kcal/mol | Observed rate of reduction of βMEox at pH 5.0 compared with DTT at pH 7.0 ([3]; BMMP pH 5.0 vs DTT pH 7.0): comparable | kobs^BMMP/kobs^DTBA, reduction of βMEox ([3]; pH 5.0): 3.6 and 4 | kobs^BMMP/kobs^DTT, reduction of βMEox ([3]; pH 5.0): 14.1 and 14 | kobs for reduction of βMEox [3, 11]: 0.0183 ± 0.0007 M⁻¹ s⁻¹ | kobs^BMMP/kobs^DMH, reduction of βMEox ([3]; pH 7.0): 1.8 | kobs^BMMP/kobs^DTBA, reduction of βMEox ([3]; pH 7.0): 3.2 and 3 | kobs^BMMP/kobs^DTT, reduction of βMEox ([3]; pH 7.0): 11.4 and 11 | kobs for reduction of βMEox [3, 12]: 1.02 ± 0.07 M⁻¹ s⁻¹ | kobs for reduction of papain-Cys25-S-S-CH3 (papain-Cys25-S—S—CH3): 1139 ± 62 M⁻¹ s⁻¹ | kobs^BMMP/kobs^DTT, reduction of papain Cys25-S—S—CH3 (papain-Cys25-S—S—CH3; pH 7.0): 13.1 and 13 | kobs for reduction of creatine kinase-Cys283-S-S-G [4]: 476 ± 34 M⁻¹ s⁻¹ | kobs^BMMP/kobs^DTBA, reduction of creatine kinase Cys283-S—S-glutathione ([4]; pH 7.0): 6.8 and 7 | kobs^BMMP/kobs^DTT, reduction of creatine kinase Cys283-S—S-glutathione ([4]; pH 7.0): 5.8 and 6 | solubility [5]: 64 ± 14 mM (≈ 11 mg/mL)

N[C@H](CS)CCS [DTBA, dithiobutylamine, reference compound]
kobs for reduction of βMEox [3, 11]: 0.0051 ± 0.0004 M⁻¹ s⁻¹ | kobs for reduction of βMEox [3, 12]: 0.32 ± 0.02 M⁻¹ s⁻¹ | kobs for reduction of papain-Cys25-S-S-CH3 (papain-Cys25-S—S—CH3): 950 ± 51 M⁻¹ s⁻¹ | kobs for reduction of creatine kinase-Cys283-S-S-G [4]: 70 ± 2 M⁻¹ s⁻¹ | Rate of reduction of creatine kinase mixed disulfide compared with DTT [6]: comparable to that of DTT

OC(CS)[C@H](O)CS (mixture of isomers)
Disulfide E°′ (reduction potential of oxidized form) [7]: −0.327 V^b

Cc1cnc(C)cn1 [2,5-dimethylpyrazine]
pKa of the conjugate acid [8]: 2.1

O[C@H](CS)[C@H](O)CS [DTT, dithiothreitol, reference compound]
kobs for reduction of βMEox [3, 11]: 0.0013 ± 0.0001 M⁻¹ s⁻¹ | kobs for reduction of βMEox [3, 12]: 0.090 ± 0.005 M⁻¹ s⁻¹ | kobs for reduction of papain-Cys25-S-S-CH3 (papain-Cys25-S—S—CH3): 87 ± 3 M⁻¹ s⁻¹ | kobs for reduction of creatine kinase-Cys283-S-S-G [4]: 82 ± 3 M⁻¹ s⁻¹ | Fraction in the reactive thiolate form ([9]; neutral pH): less than 1% | Disulfide E°′ (reduction potential of oxidized form) [7]: −0.327 V

N[C@H](CS)CCS [drawing 6]
Disulfide E°′ (reduction potential of oxidized form) [7]: −0.317 V^d

CN(C(=O)CS)N(C)C(=O)CS [DMH, N,N′-dimethyl-N,N′ bis(mercaptoacetyl)hydrazine, reference compound]
pKa ([1]; Thiol pKa (first, lower value)): 8 ± 0.2 | pKa [1, 10]: 9.1 ± 0.1 | Keq of equilibrium reaction with DTTox [2]: 0.0065±0.0020 | Disulfide E°′ (reduction potential of oxidized form) [2]: −0.262±0.004 V and −0.262±0.003 V | Rate of reduction of βMEox compared with other dithiols ([3]; pH 7.0): faster than did DTT or DTBA but slower than did BMMP | kobs for reduction of βMEox [3, 12]: 0.56 ± 0.04 M⁻¹ s⁻¹ | Thiol pKa (first, lower value) ([9]; literature value): 7.6 | Thiol pKa (second value, in parentheses) ([9]; literature value): 8.9
